Results on 62 compounds are retold here after US20050192314A1, “Urea derivatives as C-kit modulators” (Ambit Biosciences Corporation, priority 2003, published 2005).

One assay has as its target T1, KIT(DKIN) (Homo sapiens, UniProt P10721).
T1 construct: KIT(DKIN); made in house
In words: Binding constant (Kd) measurement, phage-displayed kinase competition binding assay: KIT(DKIN). An excerpt: (§1) The term “ND” represents non-determined values.

For a further assay, the target named is T2, KIT(JMminus) (Homo sapiens, UniProt P10721).
T2 construct: KIT(JMminus); made in house
T2 sequence (P10721 589-937 limits assumed): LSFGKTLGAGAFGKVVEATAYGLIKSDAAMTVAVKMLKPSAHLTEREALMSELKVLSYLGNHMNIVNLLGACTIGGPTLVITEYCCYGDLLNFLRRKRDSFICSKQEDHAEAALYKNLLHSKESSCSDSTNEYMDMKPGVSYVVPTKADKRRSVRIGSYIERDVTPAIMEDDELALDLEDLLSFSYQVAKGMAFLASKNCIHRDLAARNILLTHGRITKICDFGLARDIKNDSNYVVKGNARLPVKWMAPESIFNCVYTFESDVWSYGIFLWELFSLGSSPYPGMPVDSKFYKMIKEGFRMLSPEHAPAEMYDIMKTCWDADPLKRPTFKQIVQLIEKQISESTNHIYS
Put plainly: Binding constant (Kd) measurement, phage-displayed kinase competition binding assay: KIT(JMminus).
Text: as §1

Each structure is given as a SMILES string.

T1 sequence (P10721 589-937 limits assumed): as above

As for `CC(C)(C)c1cc(NC(=O)Nc2ccc(NC(=O)c3cn4nc(Cl)ccc4n3)cc2)no1` [Compound N9], the Kd at KIT(DKIN) and at KIT(JMminus) was under 100 nM in each case. Turning to `CC(C)(C)c1cc(NC(=O)Nc2ccc(Nc3nc(Cl)nc4[nH]cnc34)cc2)no1` [Compound O4], the Kd at KIT(DKIN) and at KIT(JMminus) was under 100 nM each time. Regarding `CC(C)(C)c1cc(NC(=O)Nc2ccc(NC(=O)c3cccc(F)n3)cc2)no1` [Compound N8], the Kd at KIT(DKIN) and at KIT(JMminus) was under 100 nM throughout. As to `CC(C)(C)c1cc(NC(=O)Nc2ccc(NC(=O)/C=C/c3ccccc3Cl)cc2)no1` [Compound N40], the Kd (in general, the concentration at which binding is half-saturated) at KIT(DKIN) was 100 to 1000 nM; on KIT(JMminus), under 100 nM.

Consider `Cc1cnc(C(=O)Nc2ccc(NC(=O)Nc3cc(C(C)(C)C)on3)cc2)cn1` [Compound O2], for which the Kd at KIT(DKIN) and at KIT(JMminus) was under 100 nM each time. `Cc1ccc2sc(C(=O)Nc3ccc(NC(=O)Nc4cc(C(C)(C)C)on4)cc3)cc2c1` [Compound N133]: the Kd at KIT(DKIN) was 100 to 1000 nM; at KIT(JMminus) it was under 100 nM.

Regarding `Cc1nc(N)cc(Nc2ccc(NC(=O)Nc3cc(C(C)(C)C)on3)cc2)n1` [Compound O10], the results for the Kd at KIT(DKIN) and at KIT(JMminus) were 100 to 1000 nM and under 100 nM, respectively. On the same counts, the results for `CC(C)(C)c1cc(NC(=O)Nc2ccc(NC(=O)c3cc(Cl)nnc3Cl)cc2)no1` [Compound N174] are 1000 to 10000 nM and 1000 to 10000 nM. On KIT(JMminus), `COc1cc(OC)nc(N(C)c2cccc(C(=O)Nc3ccc(NC(=O)Nc4ccon4)cc3)c2)n1` [Compound N53] yielded a Kd of under 100 nM. Turning to `Cc1cccc(C(=O)Nc2ccc(NC(=O)Nc3cc(C(C)(C)C)on3)cc2)n1` [Compound N121], the Kd on KIT(DKIN) and on KIT(JMminus) was under 100 nM each time. As for `COc1cc(OC)nc(C2CCCCC2C(=O)Nc2ccc(NC(=O)Nc3cc(C(C)(C)C)on3)cc2)n1` (stereo not drawn) [Compound N129], at KIT(JMminus), the equilibrium dissociation constant (Kd) is under 100 nM. On KIT(JMminus), `Cn1nc(C(F)(F)F)c(C(=O)Nc2ccc(NC(=O)Nc3cc(C(C)(C)C)on3)cc2)c1Cl` [Compound N68] came in with a Kd of under 100 nM. The same measure, in the same setting: the same measure for `CC(C)(C)c1cc(NC(=O)Nc2ccc(NC(=O)c3nnsc3Cc3ccc(Cl)cc3)cc2)no1` [Compound N71]: 100 to 1000 nM; for `CC(C)(C)c1cc(NC(=O)Nc2ccc(NC(=O)c3cc(Br)cn(Cc4ccccc4)c3=O)cc2)no1` [Compound N67]: under 100 nM; for `CC(C)c1cc(NC(=O)Nc2ccc(NC(=O)C3CCN(c4ncc(C(F)(F)F)cc4Cl)CC3)cc2)no1` [Compound N59]: 100 to 1000 nM. On KIT(JMminus), `CN(C)c1ccc(C(=O)Nc2ccc(NC(=O)Nc3cc(C(C)(C)C)on3)cc2)cn1` [Compound N159] had a dissociation constant Kd of under 100 nM. Regarding `CC(C)(C)c1cc(NC(=O)Nc2ccc3c(c2)OCO3)no1` [Compound A56], the Kd on KIT(JMminus) is 100 to 1000 nM. As to `CC(C)(C)c1cc(NC(=O)Nc2ccc(NC(=O)Cc3noc4ccccc34)cc2)no1` [Compound N80], the Kd on KIT(JMminus) is under 100 nM. For `CC(C)(C)c1cc(NC(=O)Nc2ccc(NC(=O)c3nnsc3Sc3ccc(C(F)(F)F)cc3)cc2)no1` [Compound N179], the Kd on KIT(JMminus) is under 100 nM. In the case of `Cc1nc(-c2ccc(Cl)cc2)sc1C(=O)Nc1ccc(NC(=O)Nc2cc(C(C)(C)C)on2)cc1` [Compound N184], the Kd on KIT(JMminus) is under 100 nM.

At KIT(JMminus), `CC(C)(C)c1cc(NC(=O)Nc2ccc(NC(=O)c3cc4cccc5c4n(c3=O)CC5)cc2)no1` [Compound N60] had a Kd of under 100 nM.

For the compound `CC(C)(C)c1cc(NC(=O)Nc2ccc(NC(=O)c3sccc3OCc3cccc(C(F)(F)F)c3)cc2)no1` [Compound N183], at KIT(JMminus), the Kd is under 100 nM. Consider `CC(C)(C)c1cc(NC(=O)Nc2ccc(NC(=O)c3ccc4ccncc4n3)cc2)no1` [Compound N110], for which the Kd on KIT(DKIN) and at KIT(JMminus) was under 100 nM throughout. Consider `COc1ccc(NC(=O)Nc2cc(C(C)(C)C)on2)cc1OC` [Compound A55], for which the Kd at KIT(JMminus) was 1000 to 10000 nM.

Take `Cc1cnc(C(=O)Nc2ccc(NC(=O)Nc3cc(C(C)(C)C)on3)cc2)c(C(=O)O)n1` [Compound N160]: the dissociation constant (Kd) at KIT(JMminus) was under 100 nM. For `Cn1nc(C(F)(F)F)c2cc(C(=O)Nc3ccc(NC(=O)Nc4cc(C(C)(C)C)on4)cc3)sc21` [Compound N64], at KIT(JMminus), the Kd lay in the range of 100 to 1000 nM. For the compound `COc1cc(NC(=O)CCC(=O)N2CCNC(=O)CC2)ccc1NC(=O)Nc1cc(C(C)(C)C)on1` [Compound N172], the dissociation constant Kd at KIT(JMminus) fell in the range of 100 to 1000 nM. Consider `COc1cc(OC)nc(Oc2cccnc2C(=O)Nc2ccc(NC(=O)Nc3cc(C(C)(C)C)on3)cc2)n1` [Compound N56], for which, at KIT(JMminus), the Kd lay in the range of 100 to 1000 nM. With `CC(C)(C)c1cc(NC(=O)Nc2ccc(NC(=O)c3nn(-c4cccc(C(F)(F)F)c4)c(=O)cc3O)cc2)no1` [Compound N185], on KIT(JMminus), the Kd is under 100 nM. As to `CC(C)(C)c1cc(NC(=O)Nc2ccc(NC(=O)c3cn4c(n3)sc3ccccc34)cc2)no1` [Compound N73], the dissociation constant (Kd) at KIT(JMminus) was under 100 nM. With `CC(C)(C)c1cc(NC(=O)Nc2ccc(NC(=O)c3ccc4sccc4c3)cc2)no1` [Compound N122], the Kd on KIT(DKIN) was 100 to 1000 nM; at KIT(JMminus), under 100 nM. As to `CC(C)(C)c1cc(NC(=O)Nc2ccc(NC(=O)c3cc(-c4ccc(O)cc4)cs3)cc2)no1` [Compound N77], the Kd at KIT(JMminus) is under 100 nM.

Consider `Cc1ccc(C(=O)Nc2ccc(NC(=O)Nc3cc(C(C)(C)C)on3)cc2)cc1` [Compound N92], for which the Kd is 100 to 1000 nM at KIT(DKIN) and under 100 nM at KIT(JMminus). Turning to `CC(C)(C)c1cc(NC(=O)Nc2ccc(NC(=O)c3nocc3C(C)(C)C)cc2)no1` [Compound N82], the dissociation constant Kd on KIT(JMminus) was under 100 nM. Turning to `CC(C)(C)c1cc(NC(=O)Nc2ccc(NC(=O)c3cccc[n+]3[O-])cc2)no1` [Compound N81], the Kd on KIT(JMminus) was under 100 nM. At KIT(JMminus), `CC(C)c1nnsc1C(=O)Nc1ccc(NC(=O)Nc2cc(C(C)(C)C)on2)cc1` [Compound N182] registered a Kd of 100 to 1000 nM. On to `CC(C)(C)c1cc(NC(=O)Nc2ccc(OCCCc3ccncc3)cc2)no1` [Compound G1, 1-(4-(3-(pyridin-4-yl)propoxy)phenyl)-3-(5-tert-butylisoxazol-3-yl)urea], for which the dissociation constant (Kd) at KIT(DKIN) and at KIT(JMminus) was under 100 nM each time. On KIT(JMminus), `COc1ccnc(Nc2ccc(C(=O)Nc3ccc(NC(=O)Nc4cc(C(C)(C)C)on4)cc3)cc2)n1` [Compound N51] registered a Kd of under 100 nM. Same read-out and setting: the same measure for `Cc1cc(NC(=O)[C@](C)(O)CSc2ccc(F)cc2)ccc1NC(=O)Nc1cc(C(C)(C)C)on1` [Compound N170]: under 100 nM; for `COc1cc(C(=O)Nc2ccc(NC(=O)Nc3cc(C(C)(C)C)on3)cc2)nc(OC)n1` [Compound N162]: under 100 nM; for `CC(C)(C)c1cc(C(=O)Nc2ccc(NC(=O)Nc3cc(C(C)(C)C)on3)cc2)n(-c2ccccc2)n1` [Compound N78]: under 100 nM.

In turn, `COc1cc(OC)nc(Oc2ccccc2C(=O)Nc2ccc(NC(=O)Nc3cc(C(C)(C)C)on3)cc2)n1` [Compound N70] came in with a Kd on KIT(JMminus) of 100 to 1000 nM.

Regarding `CC(C)(C)c1cc(NC(=O)Nc2ccc(NC(=O)c3cc4ccccc4cn3)cc2)no1` [Compound N106], the equilibrium dissociation constant (Kd) on KIT(DKIN) and at KIT(JMminus) was under 100 nM in each case. `CC(=O)c1c[nH]c(C(=O)Cc2ccc(NC(=O)Nc3cc(C(C)(C)C)on3)cc2)c1` [Compound N43] returned a dissociation constant Kd at KIT(JMminus) of under 100 nM. In turn, `CC(C)(C)c1cc(NC(=O)Nc2ccc([N+](=O)[O-])cc2)no1` [Compound A21] showed a Kd at KIT(JMminus) of under 100 nM. As for `CC(C)(C)c1cc(NC(=O)Nc2ccc(NC(=O)c3ccc4ccccc4c3)cc2)no1` [Compound N28], the dissociation constant Kd on KIT(DKIN) and on KIT(JMminus) was under 100 nM each time. Regarding `Cc1nc(-c2ccc(C(=O)Nc3ccc(NC(=O)Nc4cc(C(C)(C)C)on4)cc3)s2)cs1` [Compound N173], the figures for the Kd at KIT(DKIN) and at KIT(JMminus) were 100 to 1000 nM and under 100 nM, respectively.

`CC(C)(C)c1cc(NC(=O)Nc2ccc(NC(=O)Cc3sc(-c4ccc(Cl)cc4)nc3-c3ccccc3)cc2)no1` [Compound N66] yielded a Kd at KIT(JMminus) of under 100 nM.

Regarding `CC(C)(C)c1cc(NC(=O)Nc2ccc(NC(=O)c3cc4cc(F)cc(S(C)(=O)=O)c4[nH]3)cc2)no1` [Compound N58], on KIT(JMminus), the Kd lay in the range of 100 to 1000 nM. For the compound `CC(C)(C)c1cc(NC(=O)Nc2ccc(NC(=O)c3ccc4ccccc4n3)cc2)no1` [Compound N143], the Kd at KIT(DKIN) and on KIT(JMminus) was under 100 nM throughout.

Take `CC(C)(C)c1cc(NC(=O)Nc2ccc(Nc3nc(N)nc4[nH]cnc34)cc2)no1` [Compound O6]: the Kd on KIT(JMminus) was under 100 nM. The compound `CC(C)(C)c1cc(NC(=O)Nc2ccc(NC(=O)c3ccccc3O)cc2)no1` [Compound N69] returned an equilibrium dissociation constant (Kd) on KIT(JMminus) of 1000 to 10000 nM. The same measure, in the same setting: the same measure for `COc1cc(OC)nc(Nc2cccc(C(=O)Nc3ccc(NC(=O)Nc4cc(C(C)(C)C)on4)cc3)c2)n1` [Compound N49]: under 100 nM; for `CC(C)(C)c1cc(NC(=O)Nc2ccc(NC(=O)c3cscn3)cc2)no1` [Compound N57]: under 100 nM; for `CC(C)(C)c1cc(NC(=O)Nc2ccc(NC(=O)CNCC(=O)Nc3ccccc3)cc2)no1` [Compound N72]: under 100 nM. The compound `COc1cc(NC(=O)c2cn3nc(Cl)ccc3n2)ccc1NC(=O)Nc1cc(C(C)(C)C)on1` [Compound N171] registered a Kd at KIT(JMminus) of under 100 nM. On the same count and under the same terms, the same measure for `CC(C)(C)c1cc(NC(=O)Nc2ccc(NC(=O)c3ccc(Oc4ccnc(C(=O)O)c4)cc3)cc2)no1` [Compound N166]: under 100 nM.

Take `Cc1ccc(-c2nc(C(=O)Nc3ccc(NC(=O)Nc4cc(C(C)(C)C)on4)cc3)cs2)cc1` [Compound N178]: the Kd on KIT(JMminus) was under 100 nM. `CC(=O)c1ccc(N2CCC(C(=O)Nc3ccc(NC(=O)Nc4cc(C(C)(C)C)on4)cc3)CC2)cc1` [Compound N65]: the Kd on KIT(JMminus) is under 100 nM. With `CC(C)(C)c1cc(NC(=O)Nc2ccc(NC(=O)c3nccc4ccccc34)cc2)no1` [Compound N117], the Kd at KIT(JMminus) is under 100 nM.

Consider `CC(C)(C)c1cc(NC(=O)Nc2ccc(NC(=O)c3cccc(Cl)n3)cc2)no1` [Compound N4], for which the Kd at KIT(DKIN) and on KIT(JMminus) was under 100 nM each time. `Cc1cccnc1C(=O)Nc1ccc(NC(=O)Nc2cc(C(C)(C)C)on2)cc1` [Compound N41]: the Kd on KIT(DKIN) and on KIT(JMminus) was under 100 nM each time.
